Measured values: patent publication US10364245B2 (CHIESI FARMACEUTICI S.p.A., priority 2017, dated 2019)

What was measured:
[1] = tested on: Peripheral Blood Mononuclear Cells (PBMCs), TNFα release; assay: LPS-stimulated PBMC TNFα release assay; format: cell-based; conditions: human PBMC, LPS (10 ng/ml), 18 h, compound 1 h before LPS; read-out: LPS-stimulated PBMC TNFα release inhibition
In short: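 TNFα in cell-free supernatant, read on MSD plates, gave % inhibition curves and IC50 (≥3 separate experiments). Healthy-donor PBMCs had 1 h compound exposure at 37 °C in 1% FBS medium, then 18 h stimulation with 10 ng/ml LPS, after a 3 h serum-free rest.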

p38 alpha = target: T1, p38 alpha (Homo sapiens, UniProt Q16539); assay: P38 alpha enzyme inhibition assay (Alphascreen kinase activity assay); format: biochemical; conditions: 100 pM p38 alpha, 2 hours preincubation at 25° C., 250 μM ATP, ATF-2 fusion protein; read-out: p38α inhibition
T1 construct: purchased Invitrogen PV3304
T1 sequence (Q16539 whole entry, the tested form may be a part): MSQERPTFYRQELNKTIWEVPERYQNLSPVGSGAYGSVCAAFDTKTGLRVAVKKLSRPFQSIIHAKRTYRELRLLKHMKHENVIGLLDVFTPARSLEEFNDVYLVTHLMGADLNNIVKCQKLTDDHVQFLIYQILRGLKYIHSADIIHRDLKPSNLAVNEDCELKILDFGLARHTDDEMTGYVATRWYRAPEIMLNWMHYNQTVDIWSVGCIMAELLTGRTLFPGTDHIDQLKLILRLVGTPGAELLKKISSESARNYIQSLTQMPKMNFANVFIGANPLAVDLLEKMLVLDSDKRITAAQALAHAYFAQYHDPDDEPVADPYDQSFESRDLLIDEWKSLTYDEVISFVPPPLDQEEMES
In short: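 Phosphorylation of ATF-2 fusion protein (0.3 μg/ml) read by AlphaScreen with anti-phospho-ATF2 antibody after 1 h kinase reaction at 25 °C, initiated by 250 μM ATP. Compounds first incubated 2 h at 25 °C with 100 pM p38 alpha in pH 7.5 HEPES buffer, 1% DMSO. IC50 derived from concentration-response data.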

Compound | IC50 [1] | IC50 (p38 alpha)
CN1CCC[C@@]1(C)c1nnc2ccc(O[C@@H]3CC[C@H](NC(=O)Nc4cc(C(=O)NCCO)nc(C(C)(C)C)c4)c4ccccc43)cn12 [Example 61, 6-(tert-Butyl)-4-(3-((1S,4R)-4-((3-((S)-1,2-dimethylpyrrolidin-2-yl)-[1,2,4]triazolo[4,3-a]pyridin-6-yl)oxy)-1,2,3,4-tetrahydronaphthalen-1-yl)ureido)-N-(2-hydroxyethyl)picolinamide] | 1 to 5 nM | 1 to 10 nM
CN(C)CCNC(=O)c1cc(NC(=O)N[C@H]2CC[C@@H](Oc3ccc4nnc([C@]5(C)CCCN5C)n4c3)c3ccccc32)cc(C(C)(C)C)n1 [Example 62, 6-(tert-Butyl)-N-(2-(dimethylamino)ethyl)-4-(3-((1S,4R)-4-((3-((S)-1,2-dimethylpyrrolidin-2-yl)-[1,2,4]triazolo[4,3-a]pyridin-6-yl)oxy)-1,2,3,4-tetrahydronaphthalen-1-yl)ureido)picolinamide] | > 5 nM | < 1 nM
CC(C)(C)c1cc(NC(=O)N[C@H]2CC[C@@H](Oc3ccc4nnc(C5CCCC5)n4c3)c3ccccc32)nc(C(=O)NCCO)n1 [Example 64] | > 5 nM | < 1 nM
CC(C)c1nnc2ccc(O[C@@H]3CC[C@H](NC(=O)Nc4cc(C(C)(C)C)nc(C(=O)NCCO)n4)c4ccccc43)cn12 [Example 65, 4-(tert-butyl)-N-(2-hydroxyethyl)-6-(3-((1S,4R)-4-((3-isopropyl-[1,2,4]triazolo[4,3-a]pyridin-6-yl)oxy)-1,2,3,4-tetrahydronaphthalen-1-yl)ureido)pyrimidine-2-carboxamide] | > 5 nM | < 1 nM
CC(C)c1nnc2ccc(O[C@@H]3CC[C@H](NC(=O)Nc4cc(C(C)(C)C)nc(C(=O)NCCN5CCOCC5)n4)c4ccccc43)cn12 [Example 66, 4-(tert-butyl)-6-(3-((1S,4R)-4-((3-isopropyl-[1,2,4]triazolo[4,3-a]pyridin-6-yl)oxy)-1,2,3,4-tetrahydronaphthalen-1-yl)ureido)-N-(2-morpholinoethyl)pyrimidine-2-carboxamide] | > 5 nM | 1 to 10 nM
COCCN(C)CCNC(=O)c1nc(NC(=O)N[C@H]2CC[C@@H](Oc3ccc4nnc(C(C)(C)C)n4c3)c3ccccc32)cc(C(C)(C)C)n1 [Example 67, 4-(tert-butyl)-6-(3-((1S,4R)-4-((3-(tert-butyl)-[1,2,4]triazolo[4,3-a]pyridin-6-yl)oxy)-1,2,3,4-tetrahydronaphthalen-1-yl)ureido)-N-(2-((2-methoxyethyl)(methyl)amino)ethyl)pyrimidine-2-carboxamide] | 1 to 5 nM | 1 to 10 nM
CC(C)(C)c1cc(NC(=O)N[C@H]2CC[C@@H](Oc3ccc4nnc(C(C)(C)C)n4c3)c3ccccc32)nc(C(=O)NCCN2CCOCC2)n1 [Example 68, 4-(tert-butyl)-6-(3-((1S,4R)-4-((3-(tert-butyl)-[1,2,4]triazolo[4,3-a]pyridin-6-yl)oxy)-1,2,3,4-tetrahydronaphthalen-1-yl)ureido)-N-(2-morpholinoethyl)pyrimidine-2-carboxamide] | 1 to 5 nM | < 1 nM
CCC(CC)c1nnc2ccc(O[C@@H]3CC[C@H](NC(=O)Nc4cc(C(C)(C)C)nc(C(=O)NCCN5CCOCC5)n4)c4ccccc43)cn12 [Example 69, 4-(tert-butyl)-N-(2-morpholinoethyl)-6-(3-((1S,4R)-4-((3-(pentan-3-yl)-[1,2,4]triazolo[4,3-a]pyridin-6-yl)oxy)-1,2,3,4-tetrahydronaphthalen-1-yl)ureido)pyrimidine-2-carboxamide] | 1 to 5 nM | < 1 nM
COCCN(C)CCNC(=O)c1nc(NC(=O)N[C@H]2CC[C@@H](Oc3ccc4nnc(C(C)C)n4c3)c3ccccc32)cc(C(C)(C)C)n1 [Example 70, 4-(tert-butyl)-6-(3-((1S,4R)-4-((3-isopropyl-[1,2,4]triazolo[4,3-a]pyridin-6-yl)oxy)-1,2,3,4-tetrahydronaphthalen-1-yl)ureido)-N-(2-((2-methoxyethyl)(methyl)amino)ethyl)pyrimidine-2-carboxamide] | > 5 nM | 1 to 10 nM
CCC(CC)c1nnc2ccc(O[C@@H]3CC[C@H](NC(=O)Nc4cc(C(C)(C)C)nc(C(=O)NCCO)n4)c4ccccc43)cn12 [Example 72, 4-(tert-butyl)-N-(2-hydroxyethyl)-6-(3-((1S,4R)-4-((3-(pentan-3-yl)-[1,2,4]triazolo[4,3-a]pyridin-6-yl)oxy)-1,2,3,4-tetrahydronaphthalen-1-yl)ureido)pyrimidine-2-carboxamide] | 1 to 5 nM | < 1 nM
CCC(CC)c1nnc2ccc(O[C@@H]3CC[C@H](NC(=O)Nc4cc(C(C)(C)C)nc(C(=O)NCCN(C)CCOC)n4)c4ccccc43)cn12 [Example 73, 4-(tert-butyl)-N-(2-((2-methoxyethyl)(methyl)amino)ethyl)-6-(3-((1S,4R)-4-((3-(pentan-3-yl)-[1,2,4]triazolo[4,3-a]pyridin-6-yl)oxy)-1,2,3,4-tetrahydronaphthalen-1-yl)ureido)pyrimidine-2-carboxamide] | 1 to 5 nM | < 1 nM
CN(C)CCNC(=O)c1nc(NC(=O)N[C@H]2CC[C@@H](Oc3ccc4nnc(C5CCCC5)n4c3)c3ccccc32)cc(C(C)(C)C)n1 [Example 74, 4-(tert-butyl)-6-(3-((1S,4R)-4-((3-cyclopentyl-[1,2,4]triazolo[4,3-a]pyridin-6-yl)oxy)-1,2,3,4-tetrahydronaphthalen-1-yl)ureido)-N-(2-(dimethylamino)ethyl)-pyrimidine-2-carboxamide] | > 5 nM | 1 to 10 nM
CC(C)(C)c1cc(NC(=O)N[C@H]2CC[C@@H](Oc3ccc4nnc(C5CCCC5)n4c3)c3ccccc32)nc(C(=O)NCCN2CCOCC2)n1 [Example 75, 4-(tert-butyl)-6-(3-((1S,4R)-4-((3-cyclopentyl-[1,2,4]triazolo[4,3-a]pyridin-6-yl)oxy)-1,2,3,4-tetrahydronaphthalen-1-yl)ureido)-N-(2-morpholinoethyl)-pyrimidine-2-carboxamide] | > 5 nM | 1 to 10 nM
COCCN(C)CCNC(=O)c1nc(NC(=O)N[C@H]2CC[C@@H](Oc3ccc4nnc(C5CCCC5)n4c3)c3ccccc32)cc(C(C)(C)C)n1 [Example 76, 4-(tert-butyl)-6-(3-((1S,4R)-4-((3-cyclopentyl-[1,2,4]triazolo[4,3-a]pyridin-6-yl)oxy)-1,2,3,4-tetrahydronaphthalen-1-yl)ureido)-N-(2-((2-methoxyethyl)(methyl)-amino)ethyl)pyrimidine-2-carboxamide] | > 5 nM | 1 to 10 nM
CN(CCO)CCNC(=O)c1nc(NC(=O)N[C@H]2CC[C@@H](Oc3ccc4nnc(C(C)(C)C)n4c3)c3ccccc32)cc(C(C)(C)C)n1 [Example 77, 4-(tert-butyl)-6-(3-((1S,4R)-4-((3-(tert-butyl)-[1,2,4]triazolo[4,3-a]pyridin-6-yl)oxy)-1,2,3,4-tetrahydronaphthalen-1-yl)ureido)-N-(2-((2-hydroxyethyl)(methyl)-amino)ethyl)pyrimidine-2-carboxamide] | 1 to 5 nM | < 1 nM
CC(C)(C)c1cc(NC(=O)N[C@H]2CC[C@@H](Oc3ccc4nnc(C(C)(C)C)n4c3)c3ccccc32)nc(C(=O)NCCN2CC(O)C2)n1 [Example 78, 4-(tert-butyl)-6-(3-((1S,4R)-4-((3-(tert-butyl)-[1,2,4]triazolo[4,3-a]pyridin-6-yl)oxy)-1,2,3,4-tetrahydronaphthalen-1-yl)ureido)-N-(2-(3-hydroxyazetidin-1-yl)ethyl)pyrimidine-2-carboxamide] | > 5 nM | < 1 nM
CC(C)(C)c1cc(NC(=O)N[C@H]2CC[C@@H](Oc3ccc4nnc(C(C)(C)C)n4c3)c3ccccc32)nc(C(=O)NCCCN2CCOCC2)n1 [Example 80, 4-(tert-butyl)-6-(3-((1S,4R)-4-((3-(tert-butyl)-[1,2,4]triazolo[4,3-a]pyridin-6-yl)oxy)-1,2,3,4-tetrahydronaphthalen-1-yl)ureido)-N-(3-morpholinopropyl)-pyrimidine-2-carboxamide] | 1 to 5 nM | 1 to 10 nM
CN1CC(NC(=O)c2nc(NC(=O)N[C@H]3CC[C@@H](Oc4ccc5nnc(C(C)(C)C)n5c4)c4ccccc43)cc(C(C)(C)C)n2)C1 [Example 81, 4-(tert-butyl)-6-(3-((1S,4R)-4-((3-(tert-butyl)-[1,2,4]triazolo[4,3-a]pyridin-6-yl)oxy)-1,2,3,4-tetrahydronaphthalen-1-yl)ureido)-N-(1-methylazetidin-3-yl)pyrimidine-2-carboxamide] | > 5 nM | < 1 nM
CN(CCO)C(=O)c1nc(NC(=O)N[C@H]2CC[C@@H](Oc3ccc4nnc(C(C)(C)C)n4c3)c3ccccc32)cc(C(C)(C)C)n1 [Example 82, 4-(tert-butyl)-6-(3-((1S,4R)-4-((3-(tert-butyl)-[1,2,4]triazolo[4,3-a]pyridin-6-yl)oxy)-1,2,3,4-tetrahydronaphthalen-1-yl)ureido)-N-(2-hydroxyethyl)-N-methylpyrimidine-2-carboxamide] | > 5 nM | 1 to 10 nM
CC(C)(C)c1cc(NC(=O)N[C@H]2CC[C@@H](Oc3ccc4nnc(C(C)(C)C)n4c3)c3ccccc32)nc(C(=O)N[C@H]2C[C@H](CO)C2)n1 [Example 83, 4-(tert-butyl)-6-(3-((1S,4R)-4-((3-(tert-butyl)-[1,2,4]triazolo[4,3-a]pyridin-6-yl)oxy)-1,2,3,4-tetrahydronaphthalen-1-yl)ureido)-N-((1s,3R)-3-(hydroxymethyl)-cyclobutyl)pyrimidine-2-carboxamide] | 1 to 5 nM | < 1 nM
